{
  "source": "patent EP1472347B1",
  "about": "“IMPROVED PROTEIN EXPRESSION IN BACILLUS SUBTILIS” (Danisco US Inc., priority 2002, dated 2003)",
  "test_system": "aprE transcription",
  "assay": "β-galactosidase assay of the aprE-lacZ transcriptional fusion with synthetic Phr pentapeptides added to the medium",
  "type": "cell-based, B. subtilis AL",
  "conditions": "for aprE transcription (β-galactosidase activity, relative to wild-type): 10 µM pentapeptide in TY medium at 37°C, 4 hours after transition point between exponential and post-exponential growth, strain grown without Phr peptides (WT) set to 100%",
  "method": "Figure 1 provides a bar graph depicting the different effects of Phr pentapeptides on aprE transcription. The transcription of the aprE-IacZ gene fusion in B. subtilis AL grown in TY medium at 37°C in the presence of 10 µM of one of the following pentapeptides (see Table II): PhrA (A), PhrC, (C), PhrE (E), PhrF (F), PhrG (G), PhrI (I) or PhrK (K), or in the absence of pentapeptides (-), was measured 4 hours after the transition point between the exponential and post-exponential growth phases. β-galactosidase activities were determined in Units per OD600 (% of WT; aprE-lacZ transcription level of the strain grown in the absence of Phr peptides [WT] is set to 100%).\nFigure 2 provides a graph showing that PhrE stimulates aprE transcription. […] Zero time (T0) indicates the transition point between the exponential and post-exponential growth phases.\nOvernight cultures were diluted to an optical density (OD600) of 0.1 in fresh TY medium, supplemented with Phr60 pentapeptide, as appropriate. Samples for OD600 readings and β-galactosidase activity determinations were taken at hourly intervals. The assay and the calculation of β-galactosidase activity (expressed as units per OD600) of the samples was performed as known In the art (See, Miller, Experiments In Molecular Genetics, Cold Spring Harbor Laboratory Press, NY, [1982]).\nTo analyze whether chromosomally-encoded Rap-Phr systems might be Involved in protease production, B. subtilis AL (bearing an aprE-lacZ transcriptional fusion), was grown in TY medium supplemented with synthetic PhrA, -C, -E, -F, -G, -H, -I, or -K pentapeptides (Table II).\nIn this Example, experiments conducted to further assess the effects of Rap-Phr systems on the transcription of aprE are described. The RapE-PhrE system was used as a model for two reasons. […] To determine the effect of PhrE on aprE transcription during growth, synthetic PhrE was added at two concentrations (1 and 10 µg/ml) to the medium of B. subtilis AL. […] It was also noted that in the latter case, aprE transcription seemed to be improved during all growth phases.",
  "note": "No end group written: not given here.",
  "data": [
    {"substance": "ARNQT [PhrA]", "values": [
      {"measurement": "aprE transcription (β-galactosidase activity, relative to wild-type)", "result": "100-120 % relative to wild-type"}
    ]},
    {"substance": "DRVGA [PhrI]", "values": [
      {"measurement": "aprE transcription (β-galactosidase activity, relative to wild-type)", "result": "100-120 % relative to wild-type"}
    ]},
    {"substance": "EKMIG [PhrG]", "values": [
      {"measurement": "aprE transcription (β-galactosidase activity, relative to wild-type)", "result": "100-120 % relative to wild-type"}
    ]},
    {"substance": "ERGMT [PhrC]", "values": [
      {"measurement": "aprE transcription (β-galactosidase activity, relative to wild-type)", "result": "~60 % relative to wild-type"}
    ]},
    {"substance": "ERPVG [PhrK]", "values": [
      {"measurement": "aprE transcription (β-galactosidase activity, relative to wild-type)", "result": "100-120 % relative to wild-type"}
    ]},
    {"substance": "QRGMI [PhrF]", "values": [
      {"measurement": "aprE transcription (β-galactosidase activity, relative to wild-type)", "result": "~135 % relative to wild-type"}
    ]},
    {"substance": "SRNVT [PhrE]", "values": [
      {"measurement": "aprE transcription (β-galactosidase activity, relative to wild-type)", "result": "~135 % relative to wild-type"},
      {"measurement": "effect on aprE transcription compared with all Phr pentapeptides tested", "setting": "Figure 1, 10 µM pentapeptide, post-exponential growth phase", "result": "strongest positive effect on aprE transcription"},
      {"measurement": "aprE transcription during growth (time course)", "setting": "synthetic PhrE added at two concentrations (1 and 10 µg/ml) to the medium of B. subtilis AL, TY medium, 37°C, Figure 2", "result": "improved by the addition of PhrE only during the post-exponential growth phase in a PhrE concentration-dependent manner"}
    ]}
  ]
}
